The assay addresses T1, ERAP1 (Homo sapiens, UniProt Q9NZ08).
T1 construct: Purified ERAP1(37-941)-10His (ERAP1); 10His (C)
The assay is described as follows: ERAP1 mediated hydrolysis of an amide substrate (10-mer inhibition assay), biochemical system. Particulars: 10-mer substrate, incubated at 23° C. for 1 h, excitation 279 nm and emission 355 nm; read-out: IC50 vs Decapeptide WRVYEKC(Dnp)ALK-acid (where Dnp is Dinitrophenyl maleimide) (10-mer). The text has this:
This peptide has minimal fluorescence as the N-terminal tryptophan residue's fluorescence is quenched by the dinitrophenol (DNP) residue within the peptide. However, as ERAP1 hydrolyses the N-terminal amide bond and tryptophan is released this internal quenching is lost and the reaction is monitored by the increase in tryptophan fluorescence over the course of the assay. For the purposes of this application this assay is referred to as the “1 Omer inhibition assay” and compound potencies are calculated and expressed as 1050 as would be familiar to a person skilled in the art.
Biological Assay 1: ERAP1 Mediated Hydrolysis of an Amide Substrate Measured in a Biochemical System
• 1× Assay buffer (AB): 25 mM Bis-tris propane, 0.05% w/v Hydroxypropylmethylcellulose pH 7.75 made with Optima grade water • Decapeptide WRVYEKC(Dnp)ALK-acid (where Dnp is Dinitrophenyl maleimide) (10-mer) • L-Leucine 7-amido-4-methylcoumarin (L-AMC) • Purified ERAP1(37-941)-10His (ERAP1)
12.5 μL ERAP1 enzyme in 1×AB was combined with 250 nL test compound in DMSO. 12.5 μL of either 240 μM L-AMC in 1×AB or 100 μM 10-mer in 1×AB was added to the reaction and incubated at 23° C. for 1 h. For detection, plates were read at excitation 365 nm and emission 442 nm (L-AMC) or excitation 279 nm and emission 355 nm (10-mer). Compound IC50 was determined using a 4-parameter equation.

One may read the IC50 as the concentration needed to halve the response being measured.

T1 sequence (Q9NZ08 37-941): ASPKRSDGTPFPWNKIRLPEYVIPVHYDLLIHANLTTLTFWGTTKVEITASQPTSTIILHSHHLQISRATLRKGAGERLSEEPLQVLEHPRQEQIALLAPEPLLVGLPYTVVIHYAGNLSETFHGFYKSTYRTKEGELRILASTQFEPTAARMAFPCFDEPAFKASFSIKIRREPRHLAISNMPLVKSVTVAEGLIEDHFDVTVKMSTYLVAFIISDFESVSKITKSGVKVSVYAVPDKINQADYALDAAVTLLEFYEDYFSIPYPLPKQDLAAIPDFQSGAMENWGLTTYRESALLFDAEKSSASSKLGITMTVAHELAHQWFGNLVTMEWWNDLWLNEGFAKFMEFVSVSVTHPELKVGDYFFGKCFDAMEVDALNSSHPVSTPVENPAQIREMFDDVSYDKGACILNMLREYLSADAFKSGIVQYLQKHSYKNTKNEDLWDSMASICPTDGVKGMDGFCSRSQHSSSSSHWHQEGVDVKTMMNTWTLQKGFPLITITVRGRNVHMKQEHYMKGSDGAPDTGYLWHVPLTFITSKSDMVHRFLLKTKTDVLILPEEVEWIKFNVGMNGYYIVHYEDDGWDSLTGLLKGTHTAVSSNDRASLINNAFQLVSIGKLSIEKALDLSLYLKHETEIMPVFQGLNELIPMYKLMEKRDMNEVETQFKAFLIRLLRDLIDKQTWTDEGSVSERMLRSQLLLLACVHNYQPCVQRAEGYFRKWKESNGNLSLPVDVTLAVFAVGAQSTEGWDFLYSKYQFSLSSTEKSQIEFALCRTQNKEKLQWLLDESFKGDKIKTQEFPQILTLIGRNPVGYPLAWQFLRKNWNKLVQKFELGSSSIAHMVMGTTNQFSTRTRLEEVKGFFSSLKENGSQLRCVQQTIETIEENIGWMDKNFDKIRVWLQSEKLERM

Take `N#Cc1cc2c(cc1Cl)N1CCCCC1C/C=C/COc1ccc(C(=O)O)cc1S(=O)(=O)N2` (single isomer, unassigned) [Example 45, (E)-3-chloro-2-cyano-7,8,9,9a,10,13-hexahydro-6H, 20H-dibenzo[b,f]pyrido[1,2-h][1]oxa[4]thia[5,8]diazacyclotridecine-17-carboxylic acid 19,19-dioxide]: the IC50 was below 250 nM.

For `N#Cc1cc2c(cc1Cl)N1CCCCC1C/C=C/COc1ccc(C(=O)O)cc1S(=O)(=O)N2` (single isomer, unassigned) [Example 46, (E)-3-chloro-2-cyano-7,8,9,9a,10,13-hexahydro-6H, 20H-dibenzo[b,f]pyrido[1,2-h][1]oxa[4]thia[5,8]diazacyclotridecine-17-carboxylic acid 19,19-dioxide], the IC50 was below 250 nM.

For the compound `N#Cc1cc2c(cc1Cl)N1CCCCC1/C=C/COc1ccc(C(=O)O)cc1S(=O)(=O)N2` (single isomer, unassigned) [Example 47, (E)-3-chloro-2-cyano-6,7,8,9,9a,12-hexahydro-19H-dibenzo[b,f]pyrido[1,2-h][1]oxa[4]thia[5,8]diazacyclododecine-16-carboxylic acid 18,18-dioxide], the IC50 was in the range of 250 to 1000 nM.

Turning to `N#Cc1cc2c(cc1Cl)N1CCCCC1/C=C/COc1ccc(C(=O)O)cc1S(=O)(=O)N2` (single isomer, unassigned) [Example 48, (E)-3-chloro-2-cyano-6,7,8,9,9a,12-hexahydro-19H-dibenzo[b,f]pyrido[1,2-h][1]oxa[4]thia[5,8]diazacyclododecine-16-carboxylic acid 18,18-dioxide], the IC50 is below 250 nM.

As for `CS(=O)(=O)c1ccc2c(c1)NS(=O)(=O)c1cc(C(=O)O)ccc1OCCCC1CCCCN21` (single isomer, unassigned) [Example 49, 2-(methylsulfonyl)-6,7,8,9,9a,10,11,12-octahydro-19H-dibenzo[b,f]pyrido[1,2-h][1]oxa[4]thia[5,8]diazacyclododecine-16-carboxylic acid 18,18-dioxide], the IC50 was below 250 nM.

For `CS(=O)(=O)c1ccc2c(c1)NS(=O)(=O)c1cc(C(=O)O)ccc1OCCCC1CCCCN21` (single isomer, unassigned) [Example 50, 2-(methylsulfonyl)-6,7,8,9,9a,10,11,12-octahydro-19H-dibenzo[b,f]pyrido[1,2-h][1]oxa[4]thia[5,8]diazacyclododecine-16-carboxylic acid 18,18-dioxide], the half-maximal inhibitory concentration (IC50) lay within 250 to 1000 nM.

Take `N#Cc1cc2c(cc1F)N1CCCCC1CCCCOc1ccc(C(=O)O)cc1S(=O)(=O)N2` (single isomer, unassigned) [Example 55, 2-cyano-3-fluoro-7,8,9,9a,10,11,12,13-octahydro-6H,20H-dibenzo[b,f]pyrido[1,2-h][1]oxa[4]thia[5,8]diazacyclotridecine-17-carboxylic acid 19,19-dioxide]: the IC50 is below 250 nM.

Regarding `N#Cc1cc2c(cc1F)N1CCCCC1CCCCOc1ccc(C(=O)O)cc1S(=O)(=O)N2` (single isomer, unassigned) [Example 56, 2-cyano-3-fluoro-7,8,9,9a,10,11,12,13-octahydro-6H,20H-dibenzo[b,f]pyrido[1,2-h][1]oxa[4]thia[5,8]diazacyclotridecine-17-carboxylic acid 19,19-dioxide], the half-inhibitory concentration (IC50) is below 250 nM.

As for `CS(=O)(=O)NC(=O)c1ccc2c(c1)S(=O)(=O)Nc1cc(C#N)c(Cl)cc1N1CCCC[C@H]1/C=C/CO2` (single isomer, unassigned) [Example 58], the IC50 was above 1000 nM.

Regarding `CS(=O)(=O)NC(=O)c1ccc2c(c1)S(=O)(=O)Nc1cc(C#N)c(Cl)cc1N1CCCCC1C/C=C/CO2` (single isomer, unassigned) [Example 62], the IC50 was above 1000 nM.

Consider `N#Cc1cc2c(cc1Cl)N1CCCC[C@@H]1COCCOc1ccc(C(=O)O)cc1S(=O)(=O)N2` (single isomer, unassigned) [Example 67], for which the IC50 was below 250 nM.

In the case of `N#Cc1cc2c(cc1Cl)N1CCCC[C@H]1COCCOc1ccc(C(=O)O)cc1S(=O)(=O)N2` (single isomer, unassigned) [Example 68], the IC50 was below 250 nM.

(Values after patent US20240300976A1, “COMPOUNDS AS MODULATORS OF ENDOPLASMIC RETICULUM AMINOPEPTIDASE 1 (ERAP1)” (GREY WOLF THERAPEUTICS LIMITED, priority 2020, published 2024).)
